One series relates to Na^+ channel (site 2). The series is described as follows: Radioligand binding, Na+ channel (site 2). More on the design: species or system rat. The protocol:
(§1) Dysfunction of both sodium and calcium ion channels is known to be one of the crucial reasons behind the pathogenesis of seizures. Consequently, these ion channels are molecular targets for several clinically important ASDs such as lacosamide, lamotrigine, carbamazepine, oxcarbazepine and compounds currently under preclinical and clinical studies. Thus, for KA-228 and KA-232, we tested herein their binding profile toward the aforementioned ion channels at concentrations of 10 and 100 µM (Table 3). […] Apart from in vitro studies focused on explaining the mechanism of action, KA-232 was additionally tested for its interaction with the potassium channel (hERG) which is recognized as one of the most important ‘off-targets’ responsible for harmful arrhythmogenic activity. Thus, the interaction of potential drug candidates with hERG must be excluded at an early stage of development.
(§2) Binding studies were carried out commercially in Eurofins Laboratories (Poitiers, France or New Taipei City, Taiwan).

The subject of series [1] is neuromuscular strength in mice. The experiment in a line: Grip strength test. The class given is in vivo. The settings on record: 50 mg/kg i.p., 30 min before test. The procedure: The experiments were conducted on adult male albino Swiss mice weighing 22–26 g. The animals were kept in colony cages under standardized laboratory conditions: natural light–dark cycle 12/12 h, temperature 20–24 °C, air humidity 45–65% and free access to tap water and food (chow pellets). After 7 days of adaptation to laboratory conditions, the animals were randomly assigned to experimental groups consisting of 8 mice. The experimental procedures described herein were approved by the Local Ethics Committee in Lublin, Poland (approval numbers: 71/2020 and 13/2021), and were conducted in accordance with EU Directive 2010/63/EU for animal experiments. All efforts were made to minimize animal suffering and to use only the number of animals necessary to produce reliable scientific data according to the 3Rs rule. The grip strength test was carried out according to the methodology described by Socała et al.. Neuromuscular strength was measured just before the ivPTZ seizure threshold test to limit the number of animals used. The ED50 or TD50 values for tested substances in the acute animal models of seizures were calculated using the computer log-probit analysis. Subsequently, the ED50 and TD50 values (±SEM) were statistically analyzed using one-way analysis of variance (ANOVA) followed by the post hoc Dunnett’s test for multiple comparisons. Differences among values were considered statistically significant if p < 0.05. GraphPad Prism version 8 for Windows (GraphPad Software, San Diego, CA, USA) was used as a statistical software program. The results obtained from the acute ivPTZ test and grip strength test were evaluated by a Student’s t test. Fisher’s exact probability test was used to analyze protection from tonic forelimb and hindlimb extension in the ivPTZ test. Figure 8 Effects of KA-228 and KA-232 on neuromuscular strength in mice. KA-228 and KA-232 were administered i.p., 30 min before the test. Control animals received vehicle. […] The statistical significance was evaluated using the Student’s t test: * p < 0.05 vs. the vehicle-treated group (GraphPad Prism 8).

In series [2] the test system is Calcium Cav1.2 channels (dihydropyridine site, antagonist radioligand). The series is described as follows: Radioligand binding, Cav1.2 dihydropyridine site. Further details: species or system rat. The settings on record: 10 µM. The procedure:
as §1, §2

In series [3] the test system is PTZ-induced clonic seizures in mice. The experiment in a line: scPTZ-induced convulsions. The note with it: i.p. Type of series: in vivo. The protocol: (§3) The experiments were conducted on adult male albino Swiss mice weighing 22–26 g. The animals were kept in colony cages under standardized laboratory conditions: natural light–dark cycle 12/12 h, temperature 20–24 °C, air humidity 45–65% and free access to tap water and food (chow pellets). After 7 days of adaptation to laboratory conditions, the animals were randomly assigned to experimental groups consisting of 8 mice. The experimental procedures described herein were approved by the Local Ethics Committee in Lublin, Poland (approval numbers: 71/2020 and 13/2021), and were conducted in accordance with EU Directive 2010/63/EU for animal experiments. All efforts were made to minimize animal suffering and to use only the number of animals necessary to produce reliable scientific data according to the 3Rs rule.
(§4) All substances (except PTZ and tetracaine hydrochloride dissolved in water for injections) were suspended in a 1% solution of Tween 80 (Sigma-Aldrich, Saint Louis, MO, USA) in water for injections (Baxter, Warszawa, Poland) or 0.9% NaCl. All drugs were injected intraperitoneally (i.p.) 30 min before all seizure models with 1 mL syringes as a single injection, in a volume of 10 mL/kg. The pretreatment time (30 min) before testing for KA-228 and KA-232 was chosen based on the time to peak of maximum anticonvulsant activity of KA-11 from our previous studies.
The PTZ-induced clonic seizures in mice were determined after sc administration of PTZ at a dose of 100 mg/kg. The animals were administered with increasing doses of KA-228 and KA-232, and the anticonvulsant activity of each drug was evaluated as the ED50 value. This experimental procedure has been described in detail in our previous studies.
(§5) The ED50 or TD50 values for tested substances in the acute animal models of seizures were calculated using the computer log-probit analysis. Subsequently, the ED50 and TD50 values (±SEM) were statistically analyzed using one-way analysis of variance (ANOVA) followed by the post hoc Dunnett’s test for multiple comparisons. Differences among values were considered statistically significant if p < 0.05. GraphPad Prism version 8 for Windows (GraphPad Software, San Diego, CA, USA) was used as a statistical software program. The results obtained from the acute ivPTZ test and grip strength test were evaluated by a Student’s t test. Fisher’s exact probability test was used to analyze protection from tonic forelimb and hindlimb extension in the ivPTZ test.

In series [4] the test system is tonic–clonic seizures in mice. The series is described as follows: Maximal electroshock seizure (MES) test. The class given is in vivo. The protocol:
as §3, §4
The tonic–clonic seizures in mice were evoked by an electric stimulus (an alternating current 25 mA, 50 Hz, maximum output voltage 500 V, 0.2 s) generated by a rodent shocker (Hugo Sachs Elektronik, Freiburg, Germany) and delivered via ear-clip electrodes. […] This experimental procedure has been described in detail in our previous studies.
as §5
(In general: The maximal electroshock test induces tonic seizures with an electrical stimulus.)

For series [5], the system named is 6-Hz-induced psychomotor seizures in mice. The experiment in a line: 6 Hz (32 mA) seizure model. The class given is in vivo. The procedure:
as §3, §4
The 6-Hz-induced psychomotor seizures in mice were evoked by current (6 Hz, 0.2 ms rectangular pulse width, 32 mA, 3 s duration) generated by an S48 Square Pulse Stimulator and CCU1 Constant Current Unit (Grass Technologies, West Warwick, RI, USA). The animals were administered with increasing doses of KA-228 and KA-232, and the anticonvulsant activity of each drug was evaluated as the ED50. This experimental procedure has been described in detail in our previous studies.
as §5

Series [6] has as its system seizure susceptibility in mice. The series is described as follows: Timed ivPTZ seizure threshold test. The class given is in vivo. The note with it: 50 mg/kg i.p., 30 min before ivPTZ. The protocol: as §3
The timed ivPTZ seizure threshold test was carried out according to the method described by Socała et al.. KA-228 and KA-232 were suspended in a 1% solution of Tween 80 and administered i.p. 30 min before the test. In the experiment with KA-232, two separate control groups were used because the effects of KA-232 at a dose of 50 and 100 mg/kg were determined on different days.
as §5
Figure 7 Effects of KA-11, KA-228 and KA-232 on the threshold for the first myoclonic twitch (A), generalized clonus (B) and forelimb tonus (C) in the ivPTZ test in mice. KA-228 and KA-232 were administered i.p., 30 min before seizure induction. Control animals received vehicle. Data are presented as means ± SD (mg/kg PTZ; n = 9–14 animals; the n value varies between groups because some animals were excluded from the study due to unsuccessful catheterization of the vein). The statistical significance for KA-228 and KA-232 was evaluated by a Student’s t test. Data for KA-11 were used from Socała et al. and re-analyzed using one-way ANOVA followed by Dunnett’s post hoc test. * p < 0.05, ** p < 0.01, *** p < 0.001, **** p < 0.0001 vs. the vehicle-treated group (GraphPad Prism 8).

A short description of the next series: Chimney test. The note with it: male, albino Swiss, mouse, in vivo, ip, mice. The procedure: as §3
The chimney test of Boissier et al. was used to quantify the acute adverse-effect potential of KA-228 and KA-232 on motor performance in mice. […]
The ED50 or TD50 values for tested substances in the acute animal models of seizures were calculated using the computer log-probit analysis. Subsequently, the ED50 and TD50 values (±SEM) were statistically analyzed using one-way analysis of variance (ANOVA) followed by the post hoc Dunnett’s test for multiple comparisons. […] The results obtained from the acute ivPTZ test and grip strength test were evaluated by a Student’s t test. […]

In series [7] the test system is tonic–clonic seizures in mice. The settings on record: i.p.; cited from earlier work.
Series [8] has as its system 6-Hz-induced psychomotor seizures in mice. The settings on record: i.p.; cited from earlier work.
In series [9] the test system is PTZ-induced clonic seizures in mice. The note with it: i.p.; cited from earlier work.
A further series relates to hepatoma HepG2. The experiment in a line: Hepatotoxicity, HepG2 cell viability. The class given is cell-based, human. The note with it: 100× lower concentration than 100 µM. The text has this:
The assays and protocols used for evaluating the KA-232 ADME-Tox parameters were similar to those described previously for compound KA-11 [6].
Figure 9 The effect of KA-232 and the reference drug ketoconazole (KE) on CYP3A4 activity (A). The effect of KA-232 and the reference drug quinidine (QD) on CYP2D6 activity (B). The effect of KA-232 and the reference cytostatic drug doxorubicin (DX) on the HepG2 cell line (C) and the SH-SY5Y cell line (D) viability. Statistical significance (* p < 0.05, **** p < 0.0001) was analyzed by Graph Pad Prism 8 software using one-way ANOVA and Bonferroni’s Multiple Comparison Post Test.

Where two headings read alike, the source gives them in different places.

As a reminder, the ED50 is the midpoint of the dose-response relation. For orientation: melting point means the temperature of the solid-liquid transition.

`CC(C(=O)N1CCN(c2cccc(C(F)(F)F)c2)CC1)N1CCCC1=O` (centres unmarked) [KA-228, 1-(1-oxo-1-(4-(3-(trifluoromethyl)phenyl)piperazin-1-yl)propan-2-yl)pyrrolidin-2-one] returned a melting point of 87.1 to 88.4 °C. Besides, the “% Inhibition of Control Specific Binding” value in the series with Na^+ channel (site 2) (10 µM) is recorded as −2.9%. Besides, the “% Inhibition of Control Specific Binding” value with Na^+ channel (site 2) (100 µM) is reported as 15.5%. The “effect on neuromuscular strength (grip strength)” value in [1] is “did not produce any significant effects”. Further, in series [2], the “% Inhibition of Control Specific Binding” value stood at 8.7%. Further, in series [3] (Mus musculus, scPTZ 100 mg/kg, 30 min before test, read-out: ED50 PTZ ± SD), the ED50 is 95.4 ± 39.8 mg/kg. Besides, in series [3] (scPTZ), the “TI (TD50/ED50), PTZ” value was 1.38. In addition, in series [4] (Mus musculus, ip, 30 min before test, read-out: ED50 MES ± SD), the median effective dose (ED50) was determined as 92.5 ± 16 mg/kg. Besides, the “TI (TD50/ED50), MES” value in series [4] (i.p.) is 1.42. For the same compound, in series [5] (Mus musculus, ip, 30 min before test, read-out: ED50 6 Hz ± SD), the ED50 came to 61.8 mg/kg. Further, the “TI (TD50/ED50), 6 Hz” value in series [5] (i.p.) was found to be 1.72. Further, the “ED50 6 Hz ± SD” value in series [5] (i.p., 30 min before test) came to 76.4 ± 40.76 mg/kg. Further, in series [6], the “effect on threshold for forelimb tonus” value is “significantly raised”, the “effect on threshold for generalized clonus” value is “did not cause any significant changes” and the “effect on threshold for the first myoclonic twitch” value is listed as “did not cause any significant changes”. Moreover, in the series “Chimney test”, the TD50 at 30 min worked out at 131 ± 36.2 mg/kg.

Turning to `CCCC(CCC)C(=O)O` [VPA, valproic acid, reference compound], in series [7], the “ED50 MES ± SD” value is reported as 355.2 ± 108.1 mg/kg and the “TI (TD50/ED50), MES” value was 1.21. Further, in series [8], the “ED50 6 Hz ± SD” value is 110.5 ± 42.8 mg/kg and the “TI (TD50/ED50), 6 Hz” value was 3.90. Besides, in series [9], the “ED50 PTZ ± SD” value is on record as 176.2 ± 81.8 mg/kg and the “TI (TD50/ED50), PTZ” value was 2.44.

As for `COc1cccc2c1C(=O)c1c(O)c3c(c(O)c1C2=O)C[C@@](O)(C(=O)CO)C[C@@H]3O[C@H]1C[C@H](N)[C@H](O)[C@H](C)O1` [doxorubicin, reference compound], the HepG2 cell viability with hepatoma HepG2 is reported as 21 % of control.

(Values after PMC10179080, “In Vivo and In Vitro Characterization of Close Analogs of Compound KA-11, a New Antiseizure Drug Candidate” (International Journal of Molecular Sciences, 2023).)
